Experiments:
Complement factor B [1] = molecular target: T1, Complement factor B (Homo sapiens, UniProt P00751); assay: Human complement factor B ELISA assay (CVF-Bb, complement C3 protein); format: biochemical; design: followed by the addition of 0.2 μL of CVF-Bb (0.1 μmol/mL); conditions: CVF-Bb incubated with compound 1 hour, then complement C3 protein 37° C. 2 hours, OD 450 nm
Description: The mixture was incubated at room temperature for 1 hour;
Then, 9 μL of the successfully incubated samples were taken and added to the wells of the 96T plate, followed by the addition of 1 μL complement C3 protein, and the reaction was carried out at a constant temperature of 37° C. for 2 hours;
The 9 μL of the aforementioned sample-free liquid was mixed with 1 μL of complement C3 protein as the negative control; • 10 μL of the successfully incubated sample was taken, and the inhibitory concentration was determined by ELISA. The OD value at 450 nm was measured, and a curve was plotted. The obtained data were analyzed using GraphPad Prism 7.0 software, and a Log concentration-inhibition rate curve was generated using a nonlinear regression model to calculate the IC50 value.
Target sequence in this assay (P00751 260-764 limits assumed): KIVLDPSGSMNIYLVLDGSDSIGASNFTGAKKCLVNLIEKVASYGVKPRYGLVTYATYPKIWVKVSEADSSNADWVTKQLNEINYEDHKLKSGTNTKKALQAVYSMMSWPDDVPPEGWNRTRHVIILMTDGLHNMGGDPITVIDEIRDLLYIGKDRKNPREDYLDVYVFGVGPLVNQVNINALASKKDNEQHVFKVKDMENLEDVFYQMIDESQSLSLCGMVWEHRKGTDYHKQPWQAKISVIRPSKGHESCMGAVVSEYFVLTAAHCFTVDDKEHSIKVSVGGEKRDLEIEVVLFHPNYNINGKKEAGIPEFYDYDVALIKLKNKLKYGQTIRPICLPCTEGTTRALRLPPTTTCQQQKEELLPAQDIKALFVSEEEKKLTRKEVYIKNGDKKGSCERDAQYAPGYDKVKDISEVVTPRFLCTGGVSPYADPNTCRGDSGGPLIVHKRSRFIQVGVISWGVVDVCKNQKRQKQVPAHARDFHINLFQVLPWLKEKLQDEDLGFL
Target sequence in this assay (Q91132 23-649 partner limits assumed): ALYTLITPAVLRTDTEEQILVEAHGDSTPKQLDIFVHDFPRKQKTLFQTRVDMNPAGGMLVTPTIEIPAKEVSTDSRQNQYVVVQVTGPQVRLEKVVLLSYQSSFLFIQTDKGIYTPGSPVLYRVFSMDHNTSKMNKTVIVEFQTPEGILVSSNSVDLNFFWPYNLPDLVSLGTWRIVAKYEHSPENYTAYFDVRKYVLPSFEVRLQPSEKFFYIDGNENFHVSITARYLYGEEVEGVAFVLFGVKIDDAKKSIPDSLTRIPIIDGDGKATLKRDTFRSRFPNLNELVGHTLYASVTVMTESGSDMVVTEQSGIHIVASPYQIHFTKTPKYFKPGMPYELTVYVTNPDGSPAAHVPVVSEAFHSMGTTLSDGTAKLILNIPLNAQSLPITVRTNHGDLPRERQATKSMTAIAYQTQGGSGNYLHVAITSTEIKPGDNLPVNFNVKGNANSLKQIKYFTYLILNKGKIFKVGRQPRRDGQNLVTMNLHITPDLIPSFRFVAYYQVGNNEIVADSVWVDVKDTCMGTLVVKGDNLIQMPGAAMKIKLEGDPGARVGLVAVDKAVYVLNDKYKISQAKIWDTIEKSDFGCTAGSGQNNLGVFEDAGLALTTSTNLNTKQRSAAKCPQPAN
Target sequence in this assay (Q91132 733-984 partner limits assumed): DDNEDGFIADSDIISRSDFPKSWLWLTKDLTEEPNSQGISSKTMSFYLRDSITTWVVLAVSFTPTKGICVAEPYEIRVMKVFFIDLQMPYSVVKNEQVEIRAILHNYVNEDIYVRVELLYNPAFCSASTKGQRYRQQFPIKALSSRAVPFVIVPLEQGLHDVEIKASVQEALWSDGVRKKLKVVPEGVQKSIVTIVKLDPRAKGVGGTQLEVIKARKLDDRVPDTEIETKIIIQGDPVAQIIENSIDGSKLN
Target sequence in this assay (Q91132 1264-1642 partner limits assumed): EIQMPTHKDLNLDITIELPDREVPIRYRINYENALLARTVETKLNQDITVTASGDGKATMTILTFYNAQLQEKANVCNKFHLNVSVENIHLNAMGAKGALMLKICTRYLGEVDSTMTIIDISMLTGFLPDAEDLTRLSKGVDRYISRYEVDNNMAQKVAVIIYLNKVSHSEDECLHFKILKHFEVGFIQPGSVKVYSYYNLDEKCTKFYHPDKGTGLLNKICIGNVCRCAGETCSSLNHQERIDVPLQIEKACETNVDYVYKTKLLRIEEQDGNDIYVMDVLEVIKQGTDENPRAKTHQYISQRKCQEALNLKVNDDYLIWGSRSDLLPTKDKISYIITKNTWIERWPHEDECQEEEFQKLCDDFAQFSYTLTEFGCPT

[2] = tested on: LPS-induced complement activation; assay: In vivo efficacy assay of LPS-induced complement activation in mice; conditions: female C57BL/6J mice, LPS 100 μg intraperitoneal, PO
Description: Experimental objective: To investigate the inhibitory effect of the compounds of the present disclosure on complement activation in mice induced by LPS stimulation.
Experimental animals: Female C57BL/6J mice, 7 to 9 weeks old, weighing between 17 to 23 g.
Experimental procedure: 100 μg of lipopolysaccharide (LPS) in Salmonella typhimurium (Sigma) dissolved in 100 μL of sterile PBS was intraperitoneally injected to induce complement activation in mice. Negative control animals were intraperitoneally injected 100 μL of sterile PBS and administered alone by tube feeding (PO). Positive control animals were intraperitoneally injected LPS and PO drug vehicles (0.5% (w/v) methyl cellulose and 0.5% (v/v) Tween 80).
Sample collection: 0.3 mL of blood samples were collected from the orbital venous plexus. All blood samples were added to commercially available EDTA-K2 anticoagulant tubes with a specification of 1.5 mL. After collection, within half an hour, the blood sample was centrifuged at 4° C., 3000 g for 10 min to aspirate the supernatant plasma, which was put in dry ice immediately, and stored in a refrigerator at −80° C. for Western blot analysis of downstream C3d protein levels after complement activation.
Sample analysis: Mouse plasma (5 μL)+Lysis buffer (27.5 μL)+Loading buffer (12.5 μL)+Reducing buffer (5 μL) were mixed well and incubated at 100° C. for 15 min with a loading volume of 5 μL/well, i.e., a loading volume of plasma of 0.5 μL per well.
Test compounds: positive compound LNPO23, the final product of Example 158, the final products (compound 159A and compound 159B) of Example 159, and compound 11 of Example 75.

Complement factor B [3] = molecular target: T1, Complement factor B; assay: Optical surface plasmon resonance (SPR) binding affinity assay
Target sequence in this assay (P00751 26-764): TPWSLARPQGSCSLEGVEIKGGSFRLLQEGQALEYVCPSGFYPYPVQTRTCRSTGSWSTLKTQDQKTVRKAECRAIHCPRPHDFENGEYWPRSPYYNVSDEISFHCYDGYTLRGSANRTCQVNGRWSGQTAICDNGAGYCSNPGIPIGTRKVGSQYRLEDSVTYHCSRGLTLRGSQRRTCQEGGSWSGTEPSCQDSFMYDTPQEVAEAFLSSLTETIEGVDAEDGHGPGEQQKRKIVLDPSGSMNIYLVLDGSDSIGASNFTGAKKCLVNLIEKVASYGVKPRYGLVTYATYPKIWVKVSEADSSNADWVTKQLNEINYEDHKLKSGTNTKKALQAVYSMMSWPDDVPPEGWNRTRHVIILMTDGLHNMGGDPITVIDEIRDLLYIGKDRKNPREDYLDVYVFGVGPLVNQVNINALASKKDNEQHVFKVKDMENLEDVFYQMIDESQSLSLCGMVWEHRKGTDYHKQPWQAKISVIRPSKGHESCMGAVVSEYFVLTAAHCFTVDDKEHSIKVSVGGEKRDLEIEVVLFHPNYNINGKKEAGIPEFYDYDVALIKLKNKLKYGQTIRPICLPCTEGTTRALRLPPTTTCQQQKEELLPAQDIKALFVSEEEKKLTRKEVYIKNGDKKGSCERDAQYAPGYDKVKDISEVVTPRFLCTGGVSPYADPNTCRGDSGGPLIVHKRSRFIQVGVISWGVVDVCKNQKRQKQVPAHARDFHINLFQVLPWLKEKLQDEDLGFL
Description: The SPR experiment was conducted at 25° C. using PBS buffer supplemented with 0.05% (v/v) P20 and 5% DMSO as the running buffer. The Biacore 8K instrument from GE Healthcare was employed for analysis. The CM3 chip (GE Healthcare) was activated with 400 mM EDC and 100 mM NHS at a flow rate of 30 μL/min for 420 s.

[4] = Pharmacokinetic activity assay in mice; format: in vivo; conditions: IV 1 mg/kg, PO 10 mg/kg
Description: Experimental objective: The test substance was administered to mice via single-dose intravenous and oral gavage routes, and its plasma concentration was measured to evaluate the pharmacokinetic characteristics in mice.
Experimental animals: C57 mice or other available test mice
IV dose: 1 mg/kg; vehicle: 0.5% DMSO or 0.5% MeOH-5% pharmaceutical grade polyethylene glycol-15 hydroxystearate-PBS
Sample collection: 0.03 mL of blood samples were collected from the saphenous vein in experimental animals by puncture at each time point, and the actual blood collection time was recorded. All blood samples were added to commercially available EDTA-K2 anticoagulant tubes with a specification of 1.5 mL (supplied by Jiangsu Kangjian Medical Apparatus Co., Ltd.). After collection, within half an hour, the blood sample was centrifuged at 4° C., 3000 g for 10 min to aspirate the supernatant plasma, which was put in dry ice immediately, and stored in a refrigerator at −80° C. for LCMS/MS analysis.
Blood sampling points: 5 min, 15 min, 30 min, 1 hour, 2 hours, 4 hours, 6 hours, 8 hours, 12 hours, 20 hours, 24 hours.
Test compounds: positive compound LNP023, the final product of Example 158, the final products (compound 159A and compound 159B) of Example 159, and compound 11 of Example 75.

SMILES: CCCC1CCN(C(=O)c2c(OC)cc(C)c3[nH]ccc23)C(c2ccc(C(=O)O)cc2)C1 (single isomer, unassigned) [Compound 159A]
- IC50 (Complement factor B [1]): 5 to 30 nM
- inhibition of LPS-induced complement activation (plasma C3d levels), compared with LNP023 [2]: superior or equivalent
- Kd (Complement factor B [3]): 5 to 20 nM
- clearance rate during in vivo metabolism, compared with LNP023 [4]: comparable or superior
- half-life during in vivo metabolism, compared with LNP023 [4]: comparable or superior

SMILES: CCO[C@H]1CCN(Nc2c(OC)cc(C)c3[nH]ccc23)[C@H](c2ccc(C(=O)O)cc2)C1 [Compound 11 of Example 75, 4-((2S,4S)-4-Ethoxy-1-((5-methoxy-7-methyl-1H-indol-4-yl)amino)piperidin-2-yl)benzoic acid]
- IC50 (Complement factor B [1]): 10 to 30 nM
- inhibition of LPS-induced complement activation (plasma C3d levels), compared with LNP023 [2]: superior or equivalent
- Kd (Complement factor B [3]): 5 to 20 nM
- clearance rate during in vivo metabolism, compared with LNP023 [4]: comparable or superior
- half-life during in vivo metabolism, compared with LNP023 [4]: comparable or superior

SMILES: CCCC1CCN(C(=O)c2c(OC)cc(C)c3[nH]ccc23)[C@H](c2ccc(C(=O)O)cc2)C1 (mixture of isomers) [Final product of Example 158, 4-((2S)-1-(5-Methoxy-7-methyl-1H-indole-4-carbonyl)-4-propylpiperidin-2-yl)benzoic acid]
- IC50 (Complement factor B [1]): 5 to 30 nM
- inhibition of LPS-induced complement activation (plasma C3d levels), compared with LNP023 [2]: superior or equivalent
- Kd (Complement factor B [3]): 5 to 20 nM
- clearance rate during in vivo metabolism, compared with LNP023 [4]: comparable or superior
- half-life during in vivo metabolism, compared with LNP023 [4]: comparable or superior
